Data on 16 compounds can be found in patent US20210038607A1, “OXADIAZOLYLTHIOPHENE DERIVATIVES USEFUL AS HISTONE DEACETYLASE INHIBITORS” (Karus Therapeutics Limited, priority 2018, published 2021).

For test [1], the target named is T1, Human HDAC9 (Homo sapiens, UniProt Q9UKV0).
T1 construct: amino acids 604-1066 with C-terminal His tag; His (C); host or cells: baculovirus expression system
The test is described as follows: HDAC9 biochemical assay, class IIa-specific substrate. As to conditions: read-out: HDAC Isoform IC50 (nM) 9. The essentials:
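HDAC9 residues 604-1066 (C-terminal His tag, baculovirus-expressed) at 0.06 ng/ul with 50 μM class IIa substrate Boc-Lys(trifluoroacetyl)-AMC in Tris-HCl pH 8.0 buffer with BSA and 1% DMSO. 30 min at room temperature, then developer added; fluorescence read at 360/460 nm Ex/Em.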

Test [2] addresses T2, Complex of human HDAC3 and human NCOR2 (Homo sapiens, UniProt O15379).
T2 construct: full length with C-terminal His tag, MW=49.7 kDa; His (C); host or cells: baculovirus expression system (co-expressed)
The test is described as follows: HDAC3 biochemical assay, AMC-labeled peptide substrate. The settings on record: read-out: HDAC Isoform IC50 (nM) 3. The essentials:
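Baculovirus-coexpressed His-tagged full-length HDAC3 with GST-NCOR2 (aa 395-489), 0.1 ng/ul, deacetylates 50 μM RHKK(Ac)AMC in Tris-HCl pH8.0 with BSA and 1% DMSO, 1 h at 30° C. Developer then cleaves deacetylated substrate; fluorescence read at 360/460 Ex/Em.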

The target in test [3] is T3, Human HDAC7 (Homo sapiens, UniProt Q8WUI4).
T3 construct: (a.a. 518-end) with N-terminal GST tag; GST (N); host or cells: baculovirus expression system
T3 sequence (Q8WUI4 518-952 limits assumed): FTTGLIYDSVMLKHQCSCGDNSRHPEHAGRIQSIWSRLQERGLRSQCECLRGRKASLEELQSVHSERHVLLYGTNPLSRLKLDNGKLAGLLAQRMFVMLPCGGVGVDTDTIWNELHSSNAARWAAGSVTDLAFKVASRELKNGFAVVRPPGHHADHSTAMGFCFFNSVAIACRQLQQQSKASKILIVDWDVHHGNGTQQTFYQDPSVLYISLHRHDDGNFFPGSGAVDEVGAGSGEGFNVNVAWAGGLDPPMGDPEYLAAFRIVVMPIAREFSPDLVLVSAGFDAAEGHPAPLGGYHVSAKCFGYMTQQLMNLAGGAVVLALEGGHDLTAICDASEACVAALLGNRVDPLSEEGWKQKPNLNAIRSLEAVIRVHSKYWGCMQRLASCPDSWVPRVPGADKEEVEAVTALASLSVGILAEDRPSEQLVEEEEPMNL
Briefly: HDAC7 biochemical assay, class IIa-specific substrate. The settings on record: read-out: HDAC Isoform IC50 (nM) 7. The essentials: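 GST-tagged HDAC7 (a.a. 518-end, baculovirus-expressed) at 0.001 ng/ul with 50 μM Boc-Lys(trifluoroacetyl)-AMC substrate, 30 min at room temperature in pH 8.0 Tris buffer with BSA, 1% DMSO final. Developer then releases AMC; fluorescence read at 360/460 nm.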

Test [4] addresses T4, Human HDAC8 (Homo sapiens, UniProt Q9BY41).
T4 construct: full length with C-terminal His tag, MW=42.6 kDa; His (C); host or cells: baculovirus expression system
T4 sequence (Q9BY41 1-377): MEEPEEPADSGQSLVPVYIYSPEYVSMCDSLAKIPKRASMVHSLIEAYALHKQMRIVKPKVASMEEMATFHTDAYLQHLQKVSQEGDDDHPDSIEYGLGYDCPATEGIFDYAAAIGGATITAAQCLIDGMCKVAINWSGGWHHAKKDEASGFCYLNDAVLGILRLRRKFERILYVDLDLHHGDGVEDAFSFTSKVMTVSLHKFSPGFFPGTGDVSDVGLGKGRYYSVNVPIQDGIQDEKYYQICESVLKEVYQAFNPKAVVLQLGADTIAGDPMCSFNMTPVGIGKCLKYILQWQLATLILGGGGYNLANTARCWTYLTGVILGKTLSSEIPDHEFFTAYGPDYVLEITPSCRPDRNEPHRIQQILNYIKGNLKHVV
Briefly: HDAC8 biochemical assay, AMC-labeled peptide substrate. The settings on record: read-out: HDAC Isoform IC50 (nM) 8. The essentials:
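Full-length human HDAC8 with C-terminal His tag, baculovirus-expressed, 1 ng/ul, with 100 µM RHK(Ac)K(Ac)AMC substrate in Tris-HCl pH8.0 buffer with BSA, 1% DMSO. Incubated 2 h at 30° C, then developer added to cleave deacetylated substrate; fluorescence read at 360/460 Ex/Em.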

A value given as a limit tells only on which side of the number the result lay.

T1 sequence (Q9UKV0 604-1066 isoform Q9UKV0-5): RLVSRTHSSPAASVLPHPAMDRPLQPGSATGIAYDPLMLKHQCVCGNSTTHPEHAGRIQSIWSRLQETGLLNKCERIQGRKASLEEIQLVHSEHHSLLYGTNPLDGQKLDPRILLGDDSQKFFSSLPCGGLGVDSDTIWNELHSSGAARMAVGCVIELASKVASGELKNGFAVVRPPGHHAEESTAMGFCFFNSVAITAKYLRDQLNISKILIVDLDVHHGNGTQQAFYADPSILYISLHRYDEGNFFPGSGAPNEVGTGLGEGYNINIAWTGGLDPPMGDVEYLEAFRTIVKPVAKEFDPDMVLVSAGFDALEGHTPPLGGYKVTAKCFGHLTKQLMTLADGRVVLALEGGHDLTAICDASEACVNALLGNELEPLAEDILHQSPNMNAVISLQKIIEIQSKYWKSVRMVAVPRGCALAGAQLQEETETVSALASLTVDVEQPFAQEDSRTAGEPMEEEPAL
T2 sequence (O15379 whole entry): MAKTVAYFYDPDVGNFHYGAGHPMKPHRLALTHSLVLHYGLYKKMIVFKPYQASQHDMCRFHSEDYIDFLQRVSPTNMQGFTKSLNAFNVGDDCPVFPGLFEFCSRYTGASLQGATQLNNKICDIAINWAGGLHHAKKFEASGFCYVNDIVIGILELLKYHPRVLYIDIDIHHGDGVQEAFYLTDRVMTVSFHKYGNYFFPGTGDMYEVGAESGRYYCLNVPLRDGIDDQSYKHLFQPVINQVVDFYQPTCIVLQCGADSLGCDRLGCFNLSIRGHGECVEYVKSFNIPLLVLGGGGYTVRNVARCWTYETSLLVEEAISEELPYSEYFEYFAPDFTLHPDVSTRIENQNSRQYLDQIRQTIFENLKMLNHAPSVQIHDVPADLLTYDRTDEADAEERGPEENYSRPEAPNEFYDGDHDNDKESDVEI
T2 sequence (Q9Y618 395-489 partner limits assumed): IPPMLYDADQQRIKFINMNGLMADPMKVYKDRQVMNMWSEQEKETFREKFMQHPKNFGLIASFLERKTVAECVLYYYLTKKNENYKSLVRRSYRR

As usually defined, the IC50 is the concentration needed to halve the response being measured. On to `O=C(c1ccc(N(Cc2ccc(-c3noc(C(F)(F)F)n3)s2)c2cnccn2)nn1)N1CCC1` [Example FF, 6-(Azetidine-1-carbonyl)-N-(pyrazin-2-yl)-N-({5-[5-(trifluoromethyl)-1,2,4-oxadiazol-3-yl]thiophen-2-yl}methyl)pyridazin-3-amine], for which the IC50 in test [1] was at most 1000 nM; in test [2], at most 10000 nM; in test [3] it was at most 500 nM; in test [4] it was at most 10000 nM.

With `O=C(O)c1cnnc(N(Cc2ccc(-c3noc(C(F)(F)F)n3)s2)c2cnccn2)c1` [Example DW, 6-[(Pyrazin-2-yl)({5-[5-(trifluoromethyl)-1,2,4-oxadiazol-3-yl]thiophen-2-yl}methyl)amino]pyridazine-4-carboxylic acid], the IC50 in test [1] is at most 10000 nM; in test [2], above 10000 nM; in test [3], at most 10000 nM; in test [4], at most 10000 nM.

In the case of `FC(F)(F)c1nc(-c2ccc(CN(c3cnccn3)c3cnc(N4CCOCC4)cn3)s2)no1` [Example BM, 5-(Morpholin-4-yl)-N-(pyrazin-2-yl)-N-({5-[5-(trifluoromethyl)-1,2,4-oxadiazol-3-yl]thiophen-2-yl}methyl)pyrazin-2-amine], the IC50 in test [1], in test [2], in test [3] and in test [4] was at most 10000 nM each time.

As for `COc1nccnc1N(Cc1ccc(-c2noc(C(F)(F)F)n2)s1)c1cnccn1` [Example BF, 3-Methoxy-N-(pyrazin-2-yl)-N-({5-[5-(trifluoromethyl)-1,2,4-oxadiazol-3-yl]thiophen-2-yl}methyl)pyrazin-2-amine], the IC50 was at most 10000 nM in test [1], above 10000 nM in test [2], at most 10000 nM in test [3] and at most 10000 nM in test [4].

For `CC(C)(O)c1cnnc(N(Cc2ccc(-c3noc(C(F)(F)F)n3)s2)c2cnccn2)c1` [Example GS, 2-{6-[(Pyrazin-2-yl)({5-[5-(trifluoromethyl)-1,2,4-oxadiazol-3-yl]thiophen-2-yl}methyl)amino]pyridazin-4-yl}propan-2-ol], the IC50 in test [1] is at most 10000 nM; in test [2], above 10000 nM; in test [3] it was at most 1000 nM; in test [4] it was at most 10000 nM.

Turning to `CC(=O)Nc1cnnc(N(Cc2ccc(-c3noc(C(F)(F)F)n3)s2)c2cnccn2)c1` [Example FM, N-{6-[(Pyrazin-2-yl)({5-[5-(trifluoromethyl)-1,2,4-oxadiazol-3-yl]thiophen-2-yl}methyl)amino]pyridazin-4-yl}acetamide], the 50% inhibitory concentration (IC50) was at most 10000 nM in test [1], above 10000 nM in test [2], at most 1000 nM in test [3] and at most 10000 nM in test [4].

In the case of `FC(F)(F)c1nc(-c2ccc(CN(c3cnccn3)c3cc(CN4CCOCC4)ccn3)s2)no1` [Example GI, N-{4-[(Morpholin-4-yl)methyl]pyridin-2-yl}-N-({5-[5-(trifluoromethyl)-1,2,4-oxadiazol-3-yl]thiophen-2-yl}methyl)pyrazin-2-amine], the IC50 in test [1] is at most 10000 nM; in test [2] it was above 10000 nM; in test [3] it was at most 10000 nM; in test [4] it was at most 10000 nM.

Turning to `O=C(c1nccnc1N(Cc1ccc(-c2noc(C(F)(F)F)n2)s1)c1cnccn1)N1CC(O)(C(F)(F)F)C1` [Example GQ, 1-{3-[(Pyrazin-2-yl)({5-[5-(trifluoromethyl)-1,2,4-oxadiazol-3-yl]thiophen-2-yl}methyl)amino]pyrazine-2-carbonyl}-3-(trifluoromethyl)azetidin-3-ol], the IC50 is at most 10000 nM in test [1], above 10000 nM in test [2], at most 10000 nM in test [3] and at most 10000 nM in test [4].

In the case of `FC(F)(F)c1nc(-c2ccc(CN(c3ccccn3)c3ccccn3)s2)no1` [Example U, N-(Pyridin-2-yl)-N-({5-[5-(trifluoromethyl)-1,2,4-oxadiazol-3-yl]thiophen-2-yl}methyl)pyridin-2-amine], the IC50 in test [1] was at most 10000 nM; in test [2], above 10000 nM; in test [3] it was at most 10000 nM; in test [4] it was above 10000 nM.

Turning to `Fc1ccnc(N(Cc2ccc(-c3noc(C(F)(F)F)n3)s2)c2cnccn2)c1` [Example AG, N-(4-Fluoropyridin-2-yl)-N-({5-[5-(trifluoromethyl)-1,2,4-oxadiazol-3-yl]thiophen-2-yl}methyl)pyrazin-2-amine], the IC50 was at most 10000 nM in test [1], above 10000 nM in test [2], at most 10000 nM in test [3] and at most 10000 nM in test [4].

For `COc1cncc(N(Cc2ccc(-c3noc(C(F)(F)F)n3)s2)c2cnccn2)n1` [Example BQ, 6-Methoxy-N-(pyrazin-2-yl)-N-({5-[5-(trifluoromethyl)-1,2,4-oxadiazol-3-yl]thiophen-2-yl}methyl)pyrazin-2-amine], the IC50 in test [1] was at most 10000 nM; in test [2] it was above 10000 nM; in test [3] it was at most 10000 nM; in test [4], at most 10000 nM.

For `FC(F)(F)c1nc(-c2ccc(CN(c3cnccn3)c3cnccn3)s2)no1` [Example BA, N-(Pyrazin-2-yl)-N-({5-[5-(trifluoromethyl)-1,2,4-oxadiazol-3-yl]thiophen-2-yl}methyl)pyrazin-2-amine], the 50% inhibitory concentration (IC50) in test [1] was at most 10000 nM; in test [2] it was above 10000 nM; in test [3], at most 1000 nM; in test [4] it was at most 10000 nM.

With `O=C(c1cnnc(N(Cc2ccc(-c3noc(C(F)(F)F)n3)s2)c2cnccn2)c1)N1CC[S+]([O-])CC1` [Example FU, 4-{6-[(Pyrazin-2-yl)({5-[5-(trifluoromethyl)-1,2,4-oxadiazol-3-yl]thiophen-2-yl}methyl)amino]pyridazine-4-carbonyl}-1lambda4-thiomorpholin-1-one], the IC50 in test [1] is at most 10000 nM; in test [2], above 10000 nM; in test [3], at most 10000 nM; in test [4], at most 10000 nM.

Consider `O=C(c1ccc(N(Cc2ccc(-c3noc(C(F)(F)F)n3)s2)c2cnccn2)nn1)N1CCOCC1` [Example DS, 6-(Morpholine-4-carbonyl)-N-(pyrazin-2-yl)-N-({5-[5-(trifluoromethyl)-1,2,4-oxadiazol-3-yl]thiophen-2-yl}methyl)pyridazin-3-amine], for which the IC50 in test [1] is at most 1000 nM; in test [2] it was at most 10000 nM; in test [3], at most 500 nM; in test [4], at most 10000 nM.

Consider `FC(F)(F)c1cncc(N(Cc2ccc(-c3noc(C(F)(F)F)n3)s2)c2cnccn2)n1` [Example BR, N-(Pyrazin-2-yl)-6-(trifluoromethyl)-N-({5-[5-(trifluoromethyl)-1,2,4-oxadiazol-3-yl]thiophen-2-yl}methyl)pyrazin-2-amine], for which the IC50 in test [1] was at most 10000 nM; in test [2], above 10000 nM; in test [3], at most 10000 nM; in test [4] it was at most 10000 nM.

Turning to `O=C(c1cnnc(N(Cc2ccc(-c3noc(C(F)(F)F)n3)s2)c2cnccn2)c1)N1C[C@@H]2C[C@H]1CO2` [Example FV, 5-[(1S,4S)-2-Oxa-5-azabicyclo[2.2.1]heptane-5-carbonyl]-N-(pyrazin-2-yl)-N-({5-[5-(trifluoromethyl)-1,2,4-oxadiazol-3-yl]thiophen-2-yl}methyl)pyridazin-3-amine], the IC50 in test [1] is at most 10000 nM; in test [2], above 10000 nM; in test [3], at most 10000 nM; in test [4], at most 10000 nM.
